Experimental data reported in patent US20230310634A1, “ANTI-HUMAN VISTA ANTIBODIES AND USE THEREOF” (IMMUNEXT, INC., priority 2020, published 2023).
Entries after “also recorded” stand apart in the source; their conditions may differ.

Tests used:
[1] = system: LPS-induced cytokine release; assay: LPS-induced systemic inflammation, plasma cytokines post LPS; set-up: species or system mice; details: mouse, in vivo
Procedure: In order to evaluate the ADC potential efficacy in auto-immune diseases, we used the short-term model of LPS-induced systemic inflammation. Intraperitoneal (i.p.) injection of lipopolysaccharide (LPS) is widely used as a model for acute immune response—both local and systemic—in mice.
Blood was collected at 2 or 4 h post LPS i.p. injection, and plasma isolated for cytokine analyses.
Mice were dosed at 0.5 mg/Kg.
For ADC-INVIVO-30 and 35, the Immune Monitoring Lab (IML, Shared Resources at Dartmouth-Hitchcock Norris Cotton Cancer Center) performed the analyses.
ELISAs were conducted following the manufacturer's included protocol.
Cytokine data are censored when below a […] threshold for IL-12p40 and/or […] threshold for TNF-α as it indicates a failed LPS injection.

[2] = system: peritoneal resident macrophages; assay: In vivo treatment / ex vivo activation of peritoneal resident macrophages (TNFα, IL-6); set-up: species or system mice; details: Experiment 9, 0.2 mg/Kg of GC payload, day −7, supernatants at 24 h
[3] = Plasma corticosterone levels after repeated treatment; assay type: in vivo, mice; details: bleed on day 5
Procedure: Based on the foregoing we assessed the impact of long-term treatment with an exemplary antibody drug conjugate (ADC) INX201J, and an anti-human VISTA monoclonal antibody linked to a glucocorticoid (GC) payload, on the HPA axis, specifically the corticosterone basal levels. […] The experiment was performed in female mice that were first acclimated for a week to a specific handler that would carry subsequently all injections and bleed to limit stress-induced changes in basal level of GC.
On day 5, mice were bled and their corticosterone levels assessed by ELISA.
The experiment was performed in female hVISTA KI mice. […] A control group was included that received daily PBS injections. On day 5, mice were bled and their plasma corticosterone levels assessed by ELISA.
The ELISA was conducted following the manufacturer's included protocol using Arbor Assays (cat #K014-H5) Corticosterone 5 pack ELISA Kit.

FKBP5 = FKBP5 transcription in peritoneal resident macrophages and spleen monocytes after in vivo treatment; set-up: species or system mice; details: from other studies (previous example)
Procedure: ADCs were then injected from 17 h to 7 days before mouse euthanasia and cell isolation.
After euthanasia, mice were injected in the peritoneal cavity with 7 ml of PBS/0.5% BSA/2 mM EDTA. After a brief massage of the peritoneum, a small incision was performed and the peritoneal lavage collected. PRM were isolated using negative selection (Miltenyi kit, ref 130-110-434). Spleen were dissected and dissociated mechanically; monocytes were isolated using […] (Stem Cell, EasySep™ Mouse CD11 b Positive Selection Kit II).
Cell pellets from different tissues were resuspended in 0.4 ml RNeasy lysis buffer from RNeasy Plus Mini kit (Qiagen, PN: 74136) and homogenize with 20G needle for 5 times. RNA was isolated following manufacturer's instructions and RNA eluted in […] H2O (RNase/DNase free). RNA concentration was assessed on Nanodrop.
Reverse transcription was done using Taqman reverse transcription reagents (#N8080234) and following manufacturer's instructions. Quantitative Real-Time PCR was done using Taqman master mix 2× kit (#4369016) and Taqman primers for mouse FKBP5 (Mm00487401_m1), and mouse HPRT as housekeeping gene (Mm446968_m1) and run on a QuantStudio3 from Applied Biosystem. […]

Structure (SMILES)	potency of conjugated linker/payload in the short term LPS activation model (conclusions) [1]	long term potency in controlling PRM cytokine responses (TNFα, IL-6) [2]	further results
C[C@H](NC(=O)CBr)C(=O)N[C@@H](C)C(=O)NC12CC(Cc3ccc([C@@H]4O[C@@H]5C[C@H]6[C@@H]7CCC8=CC(=O)C=C[C@]8(C)[C@H]7[C@@H](O)C[C@]6(C)[C@]5(C(=O)CO)O4)cc3)(C1)C2 [INX R, (S)-2-(2-bromoacetamido)-N—((S)-1-((3-(4-((6aR,6bS,7S,8aS,8bS,10R,11aR, 12aS,12bS)-7-hydroxy-8b-(2-hydroxyacetyl)-6a,8a-dimethyl-4-oxo-2,4,6a,6b,7,8,8a,8b,11a,12,12a,12b-dodecahydro-1H-naphtho[2′,1′:4,5]indeno[1,2-d][1,3]dioxol-10-yl)benzyl)bicyclo [1.1.1]pentan-1-yl)amino)-1-oxopropan-2-yl)propanamide]	efficacious	–	–
C[C@]12C=CC(=O)C=C1CC[C@@H]1[C@@H]2[C@@H](O)C[C@@]2(C)[C@H]1C[C@H]1O[C@@H](c3ccc(CC4CC5(C4)CC(NC(=O)[C@H](CCC(=O)O)NC(=O)CNC(=O)CBr)C5)cc3)O[C@]12C(=O)CO (stereo partly drawn) [INX V, (S)-4-(2-(2-bromoacetamido)acetamido)-5-((6-(4-((6aR,6bS,7S,8aS,8bS,10R,11 aR,12aS,12bS)-7-hydroxy-8b-(2-hydroxyacetyl)-6a,8a-dimethyl-4-oxo-2,4,6a,6b,7,8,8a,8b,11a,12,12a,12b-dodecahydro-1H-naphtho[2′,1′:4,5]indeno[1,2-d][1,3]dioxol-10-yl)benzyl)spiro[3.3]heptan-2-yl)amino)-5-oxopentanoic acid]	–	remarkable long term potency	–
C[C@]12C=CC(=O)C=C1[C@@H](F)C[C@H]1[C@@H]3C[C@H]4O[C@@H](c5ccc(CC67CC(NC(=O)[C@H](CCC(=O)O)NC(=O)CNC(=O)CBr)(C6)C7)cc5)O[C@@]4(C(=O)CO)[C@@]3(C)C[C@H](O)[C@@]12F [INX S, (S)-4-(2-(2-bromoacetamido)acetamido)-5-((3-(4-((2S,6aS,6bR,7S,8aS,8bS, 10R,11 aR,12aS,12bS)-2,6b-difluoro-7-hydroxy-8b-(2-hydroxyacetyl)-6a,8a-dimethyl-4-oxo-2,4,6a,6b,7,8,8a,8b,11a,12,12a,12b-dodecahydro-1H-naphtho[2′,1′:4,5]indeno[1,2-d][1,3]dioxol-10-yl)benzyl)bicyclo [1.1.1]pentan-1-yl)amino)-5-oxopentanoic acid]	–	remarkable long term potency; also recorded: increased potency relative to INX P	–
C[C@@H]1C[C@H]2[C@@H]3CCC4=CC(=O)C=C[C@]4(C)[C@@]3(F)[C@@H](O)C[C@]2(C)[C@@]1(O)C(=O)CO [Dex, Dexamethasone]	–	–	basal plasma corticosterone levels ([3]; Dex 0.2 mg/Kg daily for 4 days): limited though significant impact; basal plasma corticosterone levels ([3]; Dex 2 mg/Kg daily for 4 days): dramatically decreased; pharmacodynamic range (FKBP5): < 24 h
C[C@]12C=CC(=O)C=C1CC[C@@H]1[C@@H]2[C@@H](O)C[C@@]2(C)[C@H]1C[C@H]1O[C@@H](C34CC(Cc5cccc(NC(=O)[C@H](CCC(=O)O)NC(=O)CNC(=O)CBr)c5)(C3)C4)O[C@]12C(=O)CO [INX O, (S)-4-(2-(2-bromoacetamido)acetamido)-5-((3-((3-((6aR,6bS,7S,8aS,8bS,10R,11aR,12aS,12bS)-7-hydroxy-8b-(2-hydroxyacetyl)-6a,8a-dimethyl-4-oxo-2,4,6a,6b,7,8,8a,8b,11a,12,12a,12b-dodecahydro-1H-naphtho[2′,1′:4,5]indeno[1,2-d][1,3]dioxol-10-yl)bicyclo[1.1.1]pentan-1-yl)methyl)phenyl)amino)-5-oxopentanoic acid]	reduced potency	little and non-significant impact; also recorded: very limited potency	–
C[C@]12C=CC(=O)C=C1CC[C@@H]1[C@@H]2[C@@H](O)C[C@@]2(C)[C@H]1C[C@H]1O[C@@H](c3ccc(CC45CC(NC(=O)[C@H](CCC(=O)O)NC(=O)CNC(=O)CBr)(C4)C5)cc3)O[C@]12C(=O)CO [INX P, (S)-4-(2-(2-bromoacetamido)acetamido)-5-((3-(4-((6aR,6bS,7S,8aS,8bS,10R,11 aR,12aS,12bS)-7-hydroxy-8b-(2-hydroxyacetyl)-6a,8a-dimethyl-4-oxo-2,4,6a,6b,7,8,8a,8b,11a,12,12a,12b-dodecahydro-1H-naphtho[2′,1′:4,5]indeno[1,2-d][1,3]dioxol-10-yl)benzyl)bicycle[1.1.1]pentan-1-yl)amino)-5-oxopentanoic acid]	more potent	–	–
C[C@]12C=CC(=O)C=C1CC[C@@H]1[C@@H]2[C@@H](O)C[C@@]2(C)[C@H]1C[C@H]1O[C@@H](c3ccc(CC45CC(NC(=O)[C@H](CCCCN)NC(=O)CNC(=O)CBr)(C4)C5)cc3)O[C@]12C(=O)CO [INX W, (S)-6-amino-2-(2-(2-bromoacetamido)acetamido)-N-(3-(4-((6aR,6bS,7S,8aS,8bS,10R,11aR,12aS,12bS)-7-hydroxy-8b-(2-hydroxyacetyl)-6a,8a-dimethyl-4-oxo-2,4,6a,6b,7,8,8a,8b,11a,12,12a,12b-dodecahydro-1H-naphtho[2′,1′:4,5]indeno[1,2-d][1,3]dioxol-10-yl)benzyl)bicycle [1.1.1]pentan-1-yl)hexanamide]	efficacious	remarkable long term potency; also recorded: increased potency relative to INX P and INX R	–
CC12C=CC(=O)C=C1CCC1C2C(O)CC2(C)C1CC1OC(c3ccc(Cc4cnc(NC(=O)C(CCC(=O)O)NC(=O)CNC(=O)CBr)s4)cc3)OC12C(=O)CO [INX N, (S)-4-(2-(2-bromoacetamido)acetamido)-5-((5-(4-((6aR,6bS,7S,8aS,8bS,10R,11aR,12aS,12bS)-7-hydroxy-8b-(2-hydroxyacetyl)-6a,8a-dimethyl-4-oxo-2,4,6a,6b,7,8,8a,8b,11a,12,12a,12b-dodecahydro-1H-naphtho[2′,1′:4,5]indeno[1,2-d][1,3]dioxol-10-yl)benzyl)thiazol-2-yl)amino)-5-oxopentanoic acid]	no potency	–	–
